Test results as given in patent publication US7902218B2, “Substituted tetrahydroisoquinolines as β-secretase inhibitors” (Bristol-Myers Squibb Company, priority 2006, dated 2011).

molecular target: T1, BACE1 enzyme (Homo sapiens, UniProt P56817); assay: Radioligand displacement assay with a radiolabeled BACE inhibitor, HEK293-9B.A1 cell homogenate; type: binding; settings: not given
T1 construct: which overexpresses the BACE1 enzyme, was derived from HEK293 cells; endogenous in cells; washed 48,000 x g pellet of the cell homogenate
T1 sequence (P56817 46-501): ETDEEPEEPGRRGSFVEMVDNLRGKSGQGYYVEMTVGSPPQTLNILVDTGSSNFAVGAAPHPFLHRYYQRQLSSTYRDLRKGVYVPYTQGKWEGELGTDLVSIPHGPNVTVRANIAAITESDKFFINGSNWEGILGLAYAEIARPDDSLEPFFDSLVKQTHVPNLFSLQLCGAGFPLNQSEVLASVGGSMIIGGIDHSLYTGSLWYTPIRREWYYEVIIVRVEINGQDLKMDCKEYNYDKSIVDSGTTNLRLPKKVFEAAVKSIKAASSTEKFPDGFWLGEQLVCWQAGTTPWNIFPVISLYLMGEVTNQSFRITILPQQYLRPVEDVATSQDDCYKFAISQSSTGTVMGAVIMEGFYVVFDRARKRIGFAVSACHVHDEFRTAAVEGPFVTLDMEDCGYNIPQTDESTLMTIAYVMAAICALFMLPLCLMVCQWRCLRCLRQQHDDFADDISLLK
Source text: There are a number of methods by which inhibitors of the BACE enzyme can be identified experimentally. The enzyme can be obtained from membrane samples from natural tissues or cultured cells or can be expressed recombinantly in a host cell by well known methods of molecular biology. […] The enzymatic activity and/or ligand binding capability of the enzyme can be assessed within these membrane samples, or the enzyme can be purified to varying extents. As an illustrative example, the nucleic acid sequence encoding the pro and catalytic domains of human BACE can be appended on the 5′ end with an untranslated and signal sequence from the gene for acetylcholinesterase, and on the 3′ end with a sequence encoding a poly-histidine tag. This cDNA can then be expressed in Drosophila melanogaster S2 cells in which the signal and pro sequences of the transcribed/translated protein are removed by cellular proteases and the catalytic domain, appended by a C-terminal poly-histidine tag, is secreted out into the cellular medium. The enzyme can then be purified from the culture medium by nickel affinity chromatography by methods well known to those trained in the art [Mallender, W. et al., “Characterization of recombinant, soluble beta-secretase from an insect cell expression system.” Mol. Pharmacol. 2001, 59: 619-626]. Similar strategies for expressing and purifying various forms of BACE in bacterial, mammalian and other cell types would be known to one skilled in the art.
Radioligand displacement assays with a radiolabeled BACE inhibitor (WO 2004 013098, compound 3, where the methoxy group is substituted for C(^3H)3) were carried out using standard methods (Keen, M. (1999) in Receptor Binding Techniques (Walker, J. M. ed) p. 106 Humana Press, Totowa, N.J.). The HEK293-9B.A1 cell line, which overexpresses the BACE1 enzyme, was derived from HEK293 cells (Simmons, N. L. (1990) A cultured human renal epithelioid cell line responsive to vasoactive intestinal peptide. Exp. Physiol. 75:309-19.) by RAGE™ (Harrington, J. J. et al. (2001) Creation of genome-wide protein expression libraries using random activation of gene expression. Nat. Biotechnol. 19:440-5.; U.S. Pat. Nos. 6,410,266 and 6,361,972). T225 flask cultures of HEK293-9B.A1 were grown to 80% confluency in DMEM supplemented with 2 mM L-glutamine, 10 μg/ml penecillin, 10 μg/ml streptomycin, 3 μg/ml puromycin, 100 nM methotrexate, and 10% fetal bovine serum (Invitrogen, Carlsbad, Calif.), harvested, and resuspended at 2×10^8 cells per 10 ml of lysis buffer consisting of 50 mM HEPES pH 7.0 containing a protease inhibitor cocktail of AEBSF 104 μM, aprotinin 80 nM, leupeptin 2 μM, bestatin 4 μM, pepstatin A 1.5 μM, and E-64 1.4 μM (0.1% of protease inhibitor cocktail P8340, Sigma-Aldrich, St. Louis, Mo.) at 4° C. The resuspended cells were homogenized using a Polytron (Brinkman, Westbury, N.Y.) at setting 6 for 10 sec., then centrifuged at 48,000×g for 10 min. The resulting pellet was washed by repeating the resuspension, homogenization and centrifugation steps. The final pellet was resuspended in buffer at 4° C. to yield a total protein concentration of 5 mg/ml, then aliquots were frozen in liquid nitrogen for further storage at −70° C. Immediately before carrying out a binding assay, an aliquot of cell homogenate was thawed and diluted to a concentration of 100 μg/ml in assay buffer consisting of 50 mM HEPES pH 5.0 and 0.1% CHAPSO. Assays were initiated in polypropylene 96-well plates (Costar, Cambridge, Mass.) by the addition of 200 μl of cell homogenate to 50 μl of assay buffer containing 1 nM radioligand (WO 2004 013098, compound 3, where the methoxy group is substituted for C(^3H)3: 80 Ci/mMol) and various concentrations of unlabelled compounds, and incubated for 1.5 hr. at 25° C. Separation of bound from free radioligand was by filtration on GFF glass fiber filters (Innotech Biosystems International, Lansing, Mich.) using an Innotech cell harvester.

Row | Compound | IC50 [nM]
1 | CCCCN(C)C(=O)n1cc(C(=O)N[C@@H](Cc2cc(F)cc(F)c2)[C@H](O)C2Cc3ccccc3CN2)c2cccnc21 (stereo partly drawn) [Example 8, N^1-Butyl-N^3-((1R,2S)-3-(3,5-difluorophenyl)-1-hydroxy-1-(1,2,3,4-tetrahydroisoquinolin-3-yl)propan-2-yl)-N^1-methyl-1H-pyrrolo[2,3-b]pyridine-1,3-dicarboxamide] | > 1000

same assay, conditions: displacement of 1 nM tritiated radioligand, HEK293-9B.A1 homogenate, pH 5.0, 1.5 hr at 25° C.; read-out: Activity Rating (Activity based on IC50 values)

Row | Compound | IC50 [nM]
2 | CCC(C)[C@@]1(NC(C)=O)CCN([C@@H](CCc2ccccc2)C(=O)N[C@@H](Cc2cc(F)cc(F)c2)[C@H](O)[C@H]2Cc3ccccc3CN2)C1=O (stereo in doubt) [Example 1, (S)-2-((S)-3-Acetamido-3-((R)-sec-butyl)-2-oxopyrrolidin-1-yl)-N-((1R,2S)-3-(3,5-difluorophenyl)-1-hydroxy-1-((R)-1,2,3,4-tetrahydroisoquinolin-3-yl)propan-2-yl)-4-phenylbutanamide] | < 10
3 | CCC(C)[C@@]1(NC(C)=O)CCN([C@@H](CCc2ccccc2)C(=O)N[C@@H](Cc2cc(F)cc(F)c2)[C@H](O)[C@@H]2Cc3ccccc3CN2)C1=O (stereo in doubt) [Example 2, (S)-2-((S)-3-Acetamido-3-((R)-sec-butyl)-2-oxopyrrolidin-1-yl)-N-((1R,2S)-3-(3,5-difluorophenyl)-1-hydroxy-1-((S)-1,2,3,4-tetrahydroisoquinolin-3-yl)propan-2-yl)-4-phenylbutanamide] | 10 to 1000
4 | CCCOc1cccc2c1CN[C@@H]([C@@H](O)[C@H](Cc1cc(F)cc(F)c1)NC(=O)[C@H](CCc1ccccc1)N1CC[C@](NC(C)=O)([C@H](C)CC)C1=O)C2 [Example 3, (S)-2-((S)-3-Acetamido-3-((R)-sec-butyl)-2-oxopyrrolidin-1-yl)-N-((1R,2S)-3-(3,5-difluorophenyl)-1-hydroxy-1-((R)-8-propoxy-1,2,3,4-tetrahydroisoquinolin-3-yl)propan-2-yl)-4-phenylbutanamide] | < 10
5 | CCCC[C@H]1CCN([C@@H](C)C(=O)N[C@@H](Cc2cc(F)cc(F)c2)[C@H](O)[C@H]2Cc3ccccc3CN2)C1=O [Example 5, (S)-2-((S)-3-Butyl-2-oxopyrrolidin-1-yl)-N-((1R,2S)-3-(3,5-difluorophenyl)-1-hydroxy-1-((R)-1,2,3,4-tetrahydroisoquinolin-3-yl)propan-2-yl)propanamide] | > 1000
6 | CCC(C)[C@@]1(NC(C)=O)CCN([C@@H](CCc2ccccc2)C(=O)N[C@@H](Cc2cc(F)cc(F)c2)[C@H](O)C2Cc3cccc(OC)c3CN2)C1=O (stereo partly drawn) [Example 7, (2S)-2-((S)-3-Acetamido-3-sec-butyl-2-oxopyrrolidin-1-yl)-N-((1R,2S)-3-(3,5-difluorophenyl)-1-hydroxy-1-(8-methoxy-1,2,3,4-tetrahydroisoquinolin-3-yl)propan-2-yl)-4-phenylbutanamide] | < 10
7 | CCCC[C@H]1CCN([C@@H](CCc2ccccc2)C(=O)N[C@@H](Cc2cc(F)cc(F)c2)[C@H](O)[C@H]2Cc3ccccc3CN2)C1=O [Example 4] | > 1000
8 | CC(=O)N[C@]1(CC(C)C)CCN([C@@H](CCc2ccccc2)C(=O)N[C@@H](Cc2cc(F)cc(F)c2)[C@H](O)[C@H]2Cc3ccccc3CN2)C1=O [Example 6, (S)-2-((R)-3-Acetamido-3-isobutyl-2-oxopyrrolidin-1-yl)-N-((1R,2S)-3-(3,5-difluorophenyl)-1-hydroxy-1-((R)-1,2,3,4-tetrahydroisoquinolin-3-yl)propan-2-yl)-4-phenylbutanamide] | < 10
